Test [1] addresses T1, human adrenergic-α2C receptor (Homo sapiens, UniProt P18825).
T1 construct: expressed in transfected cells; host or cells: CHO cells, stably transfected; membranes
T1 sequence (P18825 1-462): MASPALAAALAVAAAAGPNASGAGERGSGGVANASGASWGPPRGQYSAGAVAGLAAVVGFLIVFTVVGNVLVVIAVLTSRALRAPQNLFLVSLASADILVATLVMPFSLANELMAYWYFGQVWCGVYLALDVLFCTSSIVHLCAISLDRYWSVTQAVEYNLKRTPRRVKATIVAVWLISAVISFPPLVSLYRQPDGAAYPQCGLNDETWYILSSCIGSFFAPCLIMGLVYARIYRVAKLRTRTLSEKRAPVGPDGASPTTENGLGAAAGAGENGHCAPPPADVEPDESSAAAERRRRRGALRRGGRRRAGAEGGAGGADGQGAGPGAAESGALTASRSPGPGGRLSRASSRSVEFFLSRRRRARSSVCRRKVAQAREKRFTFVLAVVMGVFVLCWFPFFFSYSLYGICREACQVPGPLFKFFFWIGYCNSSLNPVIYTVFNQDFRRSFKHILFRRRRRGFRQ
Put plainly: Radioligand binding experiment for α2C-adrenoceptor ([3H]raulwolscine, CHO cell membranes). The procedure: (§1) The interaction of a compound of Formula (I) with α2C-adrenoceptor receptors was assessed in in vitro radioligand binding experiments. In general, a low concentration of a radioligand with a high binding affinity for a particular receptor or transporter is incubated with a sample of a tissue preparation enriched in a particular receptor or transporter or with a preparation of cells expressing cloned human receptors in a buffered medium. During the incubation, the radioligand binds to the receptor or transporter. When equilibrium of binding is reached, the receptor bound radioactivity is separated from the non-bound radioactivity, and the receptor- or transporter-bound activity is counted. The interaction of the test compounds with the receptor is assessed in competition binding experiments. Various concentrations of the test compound are added to the incubation mixture containing the receptor- or transporter preparation and the radioligand. The test compound in proportion to its binding affinity and its concentration inhibits binding of the radioligand. The radioligand used for hα2A and hα2C receptor binding was [^3H]-raulwolscine.
(§2) CHO cells, stabile transfected with human adrenergic-α2A and α2C receptor cDNA, were cultured in Dulbecco's Modified Eagle's Medium (DMEM)/Nutrient mixture Ham's F12 (ratio 1:1) (Gibco, Gent-Belgium) supplemented with 10% heat inactivated fetal calf serum (Life Technologies, Merelbeke-Belgium) and antibiotics (100 IU/ml penicillin G, 100 μg/ml streptomycin sulphate, 110 μg/ml pyruvic acid and 100 μg/ml L-glutamine). One day before collection, cells were induced with 5 mM sodiumbutyrate. Upon 80-90% of confluence, cells were scraped in phosphate buffered saline without Ca^2+ and Mg^2+ and collected by centrifugation at 1500×g for 10 minutes. The cells were homogenised in Tris-HCl 50 mM using an Ultraturrax homogenizer and centrifuged for 10 minutes at 23,500×g. The pellet was washed once by resuspension and rehomogenization and the final pellet was resuspended in Tris-HCl, divided in 1 ml aliquots and stored at −70° C.
(§3) Membranes were thawed and re-homogenized in incubation buffer (glycylglycine 25 mM, pH 8.0). […] Filters were rinsed extensively with ice-cold rinsing buffer (Tris-HCl 50 mM pH 7.4). Filter-bound radioactivity was determined by scintillation counting in a Topcount (Packard, Meriden, Conn.) and results were expressed as counts per minute (cpm). Non-specific binding was determined in the presence of 1 μM oxymetazoline for the hα2A receptor and 1 μM spiroxatrine for hα2C receptors.
(§4) Data from assays in the presence of compound were calculated as a percentage of total binding measured in the absence of test compound. Inhibition curves, plotting percent of total binding versus the log value of the concentration of the test compound, were automatically generated, and sigmoidal inhibition curves were fitted using non-linear regression. The pIC50 values of test compounds were derived from individual curves.

Test [2] deals with T2, human adrenergic-α2A receptor (Homo sapiens, UniProt P08913).
T2 construct: expressed in transfected cells; host or cells: CHO cells, stably transfected; membranes
T2 sequence (P08913 1-465): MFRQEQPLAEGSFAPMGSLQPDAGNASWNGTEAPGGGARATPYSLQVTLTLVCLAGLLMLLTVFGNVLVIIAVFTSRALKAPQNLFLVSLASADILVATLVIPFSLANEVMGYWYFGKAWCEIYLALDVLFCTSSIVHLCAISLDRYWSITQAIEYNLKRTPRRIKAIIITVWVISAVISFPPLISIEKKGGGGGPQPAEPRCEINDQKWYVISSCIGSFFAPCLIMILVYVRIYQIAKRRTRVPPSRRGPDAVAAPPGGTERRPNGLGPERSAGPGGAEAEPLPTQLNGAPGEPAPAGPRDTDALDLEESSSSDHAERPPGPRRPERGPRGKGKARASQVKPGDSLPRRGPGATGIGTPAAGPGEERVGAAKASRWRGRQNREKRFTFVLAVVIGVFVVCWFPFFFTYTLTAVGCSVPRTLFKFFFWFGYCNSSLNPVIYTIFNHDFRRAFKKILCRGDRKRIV
Put plainly: Radioligand binding experiment for hα2A receptor ([3H]raulwolscine, CHO cell membranes). The protocol:
as §1, §2, §3, §4

The next test has as its target T3, 5HT-Transporter (Homo sapiens, UniProt P31645).
T3 construct: Human platelet membranes (Oceanix Biosciences Corporation, Hanover, Md., USA) were thawed; tissue Oceanix Biosciences Corporation; host or cells: human platelet membranes
Put plainly: Binding experiment for the 5HT-transporter ([3H]paroxetine, human platelet membranes). The protocol: as §1
Human platelet membranes (Oceanix Biosciences Corporation, Hanover, Md., USA) were thawed, diluted in buffer (Tris-HCl 50 mM, 120 mM NaCl and 5 mM KCl) and quickly (max 3 s) homogenised with an Ultraturrax homogenizer. […] Incubation was stopped by rapid filtration of the incubation mixture over GF/B filters, pre-wetted with 0.1% polyethyleneamine, using a Filtermate196 harvester (Packard, Meriden, Conn.). Filters were rinsed extensively with ice-cold buffer and radioactivity on the filters was counted in a Topcount liquid scintillation counter (Packard, Meriden, Conn.). Data were expressed as cpm. Imipramine (at 1 μM final concentration) was used to determine the non-specific binding.
as §4

[3] abbreviates: [3H]raulwolscine 1 nM, membranes of CHO cells transfected with human α2C receptor, read-out: h-α2C pIC50 (converted).
The mark [4] stands for this setting: [3H]raulwolscine 1 nM, membranes of CHO cells transfected with human α2A receptor, read-out: h-α2A pIC50 (converted).
Where [5] appears, read: [3H]paroxetine 0.5 nM, read-out: h-5HTT pIC50 (converted).

Like-named read-outs stand apart in the source and are kept apart here.

T3 sequence (P31645 whole entry): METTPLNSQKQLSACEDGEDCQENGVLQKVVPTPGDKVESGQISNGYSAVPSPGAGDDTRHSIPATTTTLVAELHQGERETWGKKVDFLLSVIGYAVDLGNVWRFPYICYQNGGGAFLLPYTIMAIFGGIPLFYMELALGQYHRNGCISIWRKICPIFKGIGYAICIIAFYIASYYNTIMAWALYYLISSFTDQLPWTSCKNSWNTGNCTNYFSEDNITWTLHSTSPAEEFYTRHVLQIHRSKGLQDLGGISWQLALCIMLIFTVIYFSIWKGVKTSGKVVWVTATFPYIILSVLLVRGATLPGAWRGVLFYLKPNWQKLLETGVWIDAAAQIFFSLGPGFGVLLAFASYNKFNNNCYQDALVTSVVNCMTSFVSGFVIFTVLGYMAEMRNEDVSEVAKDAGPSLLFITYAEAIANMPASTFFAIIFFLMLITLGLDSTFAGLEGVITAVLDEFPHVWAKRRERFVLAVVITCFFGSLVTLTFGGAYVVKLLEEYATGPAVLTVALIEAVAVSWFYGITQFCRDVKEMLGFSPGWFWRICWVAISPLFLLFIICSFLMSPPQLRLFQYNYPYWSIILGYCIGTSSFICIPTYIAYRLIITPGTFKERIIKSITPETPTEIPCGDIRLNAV

With `CC(C)(C)OC(=O)NCCCn1ccnc(NC2CCN(Cc3ccc(OCc4ccccc4)cc3)CC2)c1=O` [Compound 11-3], the values for the IC50 (in test [1] (setting [3]); in test [2] (setting [4]); on 5HT-Transporter (setting [5])) were 631 nM, 794 nM and above 10000 nM, respectively.
`CC(C)(C)OC(=O)NCc1ccc(Cn2ccnc(N3CCN(Cc4ccccc4)CC3)c2=O)cc1` [Compound 10-2]: the IC50 is 316 nM in test [1] (setting [3]), 251 nM in test [2] (setting [4]) and above 10000 nM on 5HT-Transporter (setting [5]).
The matching figures for `C=CCn1ccnc(N2CCN(CCc3ccccc3)CC2)c1=O` [Compound 10-4]: 631 nM, 2510 nM and above 10000 nM.
`CN(CCc1ccccc1)C1CCN(c2nccn(CCCN3C(=O)c4ccccc4C3=O)c2=O)CC1` [Compound 8-1]: the IC50 is 25.1 nM in test [1] (setting [3]), 1000 nM in test [2] (setting [4]) and 3160 nM on 5HT-Transporter (setting [5]).
On to `O=c1c(N2CCN(CCc3ccccc3)CC2)nccn1Cc1ccc2ccccc2c1` [Compound 10-10], for which the results for the IC50 (in test [1] (setting [3]); in test [2] (setting [4]); on 5HT-Transporter (setting [5])) were 316 nM, 501 nM and 3160 nM, respectively.
On to `O=C1c2ccccc2C(=O)N1CCCn1ccnc(NC2CCN(Cc3ccccc3)CC2)c1=O` [Compound 5-5], for which the IC50 in test [1] (setting [3]) is 398 nM; in test [2] (setting [4]), 5010 nM; on 5HT-Transporter (setting [5]) it was 3980 nM.
As to `CC(C)(C)OC(=O)NCCCn1ccnc(NC2CCN(CCCc3ccccc3)CC2)c1=O` [Compound 7-2], the IC50 in test [1] (setting [3]) was 79.4 nM; in test [2] (setting [4]), 794 nM; at 5HT-Transporter (setting [5]), 3160 nM.
The matching figures for `O=c1c(NC2CCN(Cc3ccc(OCc4ccccc4)cc3)CC2)nccn1Cc1ccc(Br)cc1` [Compound 11-7]: 631 nM, 631 nM and 1580 nM.
`O=c1c(N2CCN(Cc3ccccc3)CC2)nccn1C/C=C/c1ccccc1` [Compound 10-5]: the IC50 in test [1] (setting [3]) was 631 nM; in test [2] (setting [4]), 316 nM; on 5HT-Transporter (setting [5]) it was above 10000 nM.
As for `O=c1c(NC2CCN(CCCc3ccccc3)CC2)nccn1Cc1cccc(Br)c1` [Compound 7-12], the IC50 in test [1] (setting [3]) was 501 nM; in test [2] (setting [4]), 2000 nM; on 5HT-Transporter (setting [5]), 2510 nM.
As for `O=c1c(NC2CCN(CC(c3ccccc3)c3ccccc3)CC2)nccn1CCN1CCCCC1` [Compound 9-5], the values for the IC50 (in test [1] (setting [3]); in test [2] (setting [4]); on 5HT-Transporter (setting [5])) were 794 nM, 2510 nM and above 10000 nM, respectively.
In the case of `O=c1c(N2CCN(Cc3cccc(-c4ccccc4)c3)CC2)nccn1CC=Cc1ccccc1` [Compound 3-6], the IC50 is 794 nM in test [1] (setting [3]), 794 nM in test [2] (setting [4]) and 5010 nM at 5HT-Transporter (setting [5]).
`O=c1c(NC2CCN(CCc3ccccc3)CC2)nccn1CCN1CCCCC1` [Compound 6-5]: the IC50 is 316 nM in test [1] (setting [3]), 1580 nM in test [2] (setting [4]) and above 10000 nM at 5HT-Transporter (setting [5]).
With `O=C1c2ccccc2C(=O)N1CCCn1ccnc(NC2CCN(Cc3ccc(-c4ccccc4)cc3)CC2)c1=O` [Compound 1-4], the IC50 in test [1] (setting [3]) was 126 nM; in test [2] (setting [4]), 631 nM; at 5HT-Transporter (setting [5]) it was 158 nM.
In the case of `O=C1c2ccccc2C(=O)N1CCCn1ccnc(NC2CCN(Cc3ccc(OCc4ccccc4)cc3)CC2)c1=O` [Compound 11-5], the figures for the IC50 (in test [1] (setting [3]); in test [2] (setting [4]); on 5HT-Transporter (setting [5])) were 251 nM, 794 nM and 3160 nM, respectively.
As to `O=c1c(NC2CCN(Cc3ccc(-c4ccccc4)cc3)CC2)nccn1CC1CCCCO1` (stereo not drawn) [Compound 1-9], the IC50 was 631 nM in test [1] (setting [3]), 2000 nM in test [2] (setting [4]) and 316 nM on 5HT-Transporter (setting [5]).
On to `O=c1[nH]ccnc1NC1CCN(CCCc2ccccc2)CC1` [Compound 7-7], for which the IC50 in test [1] was 794 nM; in test [2] it was 1580 nM; at 5HT-Transporter (h-5HTT pIC50, [3H]paroxetine 0.5 nM), above 10000 nM.
For `O=c1c(NC2CCN(CC(c3ccccc3)c3ccccc3)CC2)nccn1Cc1ccccc1Br` [Compound 9-7], the IC50 in test [1] (setting [3]) is 631 nM; in test [2] (setting [4]), 1000 nM; at 5HT-Transporter (setting [5]), above 10000 nM.
Consider `O=c1c(NC2CCN(CCc3ccccc3)CC2)nccn1Cc1ccc(Br)cc1` [Compound 6-9], for which the IC50 in test [1] (setting [3]) was 316 nM; in test [2] (setting [4]) it was 1260 nM; at 5HT-Transporter (setting [5]), 6310 nM.
As to `O=C1c2ccccc2C(=O)N1CCCn1ccnc(N2CCN(Cc3ccc(-c4ccccc4)cc3)CC2)c1=O` [Compound 2-2], the IC50 in test [1] (setting [3]) was 316 nM; in test [2] (setting [4]) it was 1000 nM; on 5HT-Transporter (setting [5]) it was 200 nM.
As to `O=c1c(NC2CCN(CCCc3ccccc3)CC2)nccn1CCN1CCCCC1` [Compound 7-4], the IC50 in test [1] (setting [3]) was 126 nM; in test [2] (setting [4]), 1580 nM; at 5HT-Transporter (setting [5]), above 10000 nM.
For the compound `COC(=O)Cn1ccnc(NC2CCN(Cc3ccc(-c4ccccc4)cc3)CC2)c1=O` [Compound 1-5], the IC50 in test [1] (setting [3]) was 316 nM; in test [2] (setting [4]), 1260 nM; at 5HT-Transporter (setting [5]), 5010 nM.
As for `COC(=O)Cn1ccnc(NC2CCN(CCCc3ccccc3)CC2)c1=O` [Compound 7-6], the IC50 was 794 nM in test [1] (setting [3]), 3980 nM in test [2] (setting [4]) and above 10000 nM at 5HT-Transporter (setting [5]).
For `CC(C)(C)OC(=O)NCCCn1ccnc(NC2CCN(CC(c3ccccc3)c3ccccc3)CC2)c1=O` [Compound 9-3], the IC50 in test [1] (setting [3]) was 316 nM; in test [2] (setting [4]), 3980 nM; on 5HT-Transporter (setting [5]), above 10000 nM.
In the case of `O=c1c(NC2CCN(CC(c3ccccc3)c3ccccc3)CC2)nccn1Cc1ccc(Br)cc1` [Compound 9-9], the IC50 in test [1] (setting [3]) was 501 nM; in test [2] (setting [4]), 1260 nM; at 5HT-Transporter (setting [5]), 6310 nM.
For `O=c1c(NC2CCN(Cc3ccc(-c4ccccc4)cc3)CC2)nccn1Cc1ccccc1Br` [Compound 1-6], the IC50 in test [1] (setting [3]) is 501 nM; in test [2] (setting [4]), 794 nM; on 5HT-Transporter (setting [5]), 398 nM.
Consider `O=c1c(N2CCN(CCc3ccccc3)CC2)nccn1Cc1ccc(-c2ccccc2)cc1` [Compound 10-8], for which the IC50 in test [1] (setting [3]) is 631 nM; in test [2] (setting [4]), 794 nM; at 5HT-Transporter (setting [5]), 5010 nM.
`NCc1ccc(Cn2ccnc(NC3CCN(CC(c4ccccc4)c4ccccc4)CC3)c2=O)cc1` [Compound 9-2]: the IC50 is 631 nM in test [1] (setting [3]), 794 nM in test [2] (setting [4]) and 2510 nM on 5HT-Transporter (setting [5]).

(Values after patent US20100105694A1, “SUBSTITUTED PYRAZINONE DERIVATIVES FOR USE AS A MEDICINE” (priority 2006, published 2010).)
